Test results taken from ChEMBL document CHEMBL1154283, “Chrotacumines A-D, chromone alkaloids from Dysoxylum acutangulum” (J Nat Prod, 2009).

Legend:
Format in all cases: functional, cell-based
HL-60 = experiment: Cytotoxicity against human HL60 cells after 48 hrs by MTT assay; conditions: HL-60, 48 h
HCT-116 = experiment: Cytotoxicity against human HCT116 cells after 48 hrs by MTT assay; conditions: HCT-116, 48 h
NCI-H226 = experiment: Cytotoxicity against human NCI-H226 cells after 48 hrs by MTT assay; conditions: NCI-H226, 48 h
MCF7 = experiment: Cytotoxicity against human MCF7 cells after 48 hrs by MTT assay; conditions: MCF7, 48 h
A549 = experiment: Cytotoxicity against human A549 cells after 48 hrs by MTT assay; conditions: A549, 48 h

SMILES | IC50 (HL-60) | IC50 (HCT-116) | IC50 (NCI-H226) | IC50 (MCF7) | IC50 (A549)
COc1cc(C(=O)O[C@@H]2CN(C)CC[C@@H]2c2c(O)cc(O)c3c(=O)cc(C)oc23)cc(OC)c1OC [CHROTACUMINE C] | > 10 µM | – | – | – | –
Cc1cc(=O)c2c(O)cc3c(c2o1)[C@@H]1C[C@H](O3)N(C)C[C@H]1OC(=O)c1ccccc1 [CHROTACUMINE A] | > 10 µM | – | – | – | –
COc1ccc(C(=O)O[C@@H]2CN(C)CC[C@@H]2c2c(O)cc(O)c3c(=O)cc(C)oc23)cc1OC [CHROTACUMINE D] | > 10 µM | – | – | – | –
C/C=C(\C)C(=O)O[C@@H]1CN(C)CC[C@@H]1c1c(O)cc(O)c2c(=O)cc(C)oc12 [CHROTACUMINE B] | > 10 µM | – | – | – | –
Cc1cc(=O)c2c(O)cc(O)c([C@H]3CCN(C)C[C@H]3O)c2o1 [ROHITUKINE] | 7.5 µM | 8.8 µM | > 10 µM | > 10 µM | > 10 µM
